In patent US7041701B2, “Triterpenoid derivatives” (Univerzita Palackeho V Olomouci, priority 2000, dated 2006):

What was measured:
[1] = system: A549 human lung adenocarcinoma; test: MTT cytotoxicity assay, A549; format: cell-based; details: 72 hours, read-out: TCS50
Excerpt: (§1) One of the parameters used as the basis for colorimetric assays is the metabolic activity of viable cells. For example, a microtiter assay which uses the tetrazolium salt MTT is now widely used to quantitate cell proliferation and cytotoxicity [Hajdúch M, Mihál V, Minarík J, Fáber E, Safárová M, Weigl E, Antálek P.: Cytotechnology, 1996, 19, 243–245]. For instance, this assay is used in drug screening programs and in chemosensitivity testing. Because tetrazolium salts are cleaved only by metabolically active cells, these assays exclusively detect viable cells. In the case of the MTT assay, yellow soluble tetrazolium salt is reduced to a coloured water-insoluble formazan salt. After it is solubilized, the formazan formed can easily and rapidly be quantified in a conventional ELISA plate reader at 570 nm (maximum absorbancy). The quantity of reduced formazan corresponds to the number of vital cells in the culture. […]
(§2) The cell suspensions that were prepared and diluted according to the particular cell type and the expected target cell density (2,500–30,000 cells per well based on cell growth characteristics) were added by pipette (80 μl) into 96/well microtiter plates. […] Usually, test compounds were evaluated at six 4-fold dilutions. […] The tumour cell survival (TCS) was calculated using the following equitation: TCS=(ODdrug exposed well/mean ODcontrol wells)×100%. […]

[2] = system: MCF-7 human breast cancer, estrogen dependent, p53+/+, Rb+/+; test: MTT cytotoxicity assay, MCF-7; format: cell-based; details: 72 hours, read-out: TCS50
Excerpt: as §1, §2

[3] = system: U2OS human osteosarcoma, p53+/−, Rb+/−; test: MTT cytotoxicity assay, U2OS; format: cell-based; details: 72 hours, read-out: TCS50
Excerpt: as §1, §2

[4] = system: Saos2 human, p53−/−, Rb−/−; test: MTT cytotoxicity assay, Saos2; format: cell-based; details: 72 hours, read-out: TCS50
Excerpt: as §1, §2

[5] = system: BT549 human breast cancer, p53mut/mut; test: MTT cytotoxicity assay, BT549; format: cell-based; details: 72 hours, read-out: TCS50
Excerpt: as §1, §2

[6] = system: MDA-MB-238 human breast cancer, estrogen independent, p53mut/mut; test: MTT cytotoxicity assay, MDA-MB-238; format: cell-based; details: 72 hours, read-out: TCS50
Excerpt: as §1, §2

HT-29 human colon cancer = test: MTT cytotoxicity assay, HT-29; format: cell-based; details: 72 hours, read-out: TCS50
Excerpt: as §1, §2

MEL-3 human melanoma = test: MTT cytotoxicity assay, MEL-3; format: cell-based; details: 72 hours, read-out: TCS50
Excerpt: as §1, §2

human normal lymphocytes = test: MTT cytotoxicity assay, normal lymphocytes; format: cell-based; details: 72 hours, read-out: TCS50
Excerpt: as §1, §2

[7] = system: NIH3T3 mouse immortalised fibroblasts; test: MTT cytotoxicity assay, NIH3T3; format: cell-based; details: 72 hours, read-out: TCS50
Excerpt: as §1, §2

[8] = system: K562 human promyelocytic leukemia; test: MTT cytotoxicity assay, K562; format: cell-based; details: 72 hours, read-out: TCS50
Excerpt: as §1, §2

[9] = system: K562-CdA human promyelocytic leukemia, cladrubin resistant; test: MTT cytotoxicity assay, K562-CdA; format: cell-based; details: 72 hours, read-out: TCS50
Excerpt: as §1, §2

[10] = system: K562-FLUD human promyelocytic leukemia, fludarabin resistant; test: MTT cytotoxicity assay, K562-FLUD; format: cell-based; details: 72 hours, read-out: TCS50
Excerpt: as §1, §2

[11] = system: CEM-VCR 1/F3 human T-lymphoblastic leukemia, vincristin resistant; test: MTT cytotoxicity assay, CEM-VCR 1/F3; format: cell-based; details: 72 hours, read-out: TCS50
Excerpt: as §1, §2

[12] = system: CEM-VCR 3/D5 human T-lymphoblastic leukemia, vincristin resistant; test: MTT cytotoxicity assay, CEM-VCR 3/D5; format: cell-based; details: 72 hours, read-out: TCS50
Excerpt: as §1, §2

A549 lung cancer cells = test: Apoptosis morphology by scanning electron microscopy; format: cell-based, human; details: A549, 2 μM, 12 hours, scanning electron microscopy (FIG. 1)
Excerpt: To analyse the mechanisms of betulinine-induced cytotoxicity, it is important to distinguish apoptosis from the other major form of cell death, necrosis. Finally, at the tissue level, apoptosis produces little or no inflammation, since shrunken portions of the cell are engulfed by the neighbouring cells, especially macrophages, rather than being released into the extracellular fluid. In contrast, in necrosis, cellular contents are released into the extracellular fluid, and thus have an irritant affect on the nearby cells, causing inflammation. […] Thirdly, at the molecular level, a number of biochemical processes play an important role in the induction of apoptosis. However, the majority of them are not well understood, and they result in activation of proteases and nucleases, which finally destruct key biological macromolecules—proteins and DNA. For the detection of apoptotic versus necrotic modes of cell death, the morphology was assessed by scanning electron microscopy.
A549 cell line was cultured on tissue culture treated glass coverslips in 6-well culture plates with or without 2 μM concentration of I.3 or betulinic acid at 37° C. and 5% CO2 for 12 hours. Following incubation, the coverslips were washed in Hank's buffered salt solution and processed as described below.
Cells were fixed in 2% glutaraldehyde/PBS overnight at 4° C., dried and covered with gold under vacuum. […]

Compound: CC(=O)OC[C@@]1(C(=O)O)CC[C@]2(C)[C@H](CC[C@@H]3[C@@]4(C)CC[C@H](OC(C)=O)C(C)(C)[C@@H]4CC[C@]32C)C1=O [I.3, 3β,28-diacetoxy-18-oxo-19,20,21,29,30-pentanorlupan-22-oic acid]
- IC50 [1]: 1000 nM
- IC50 [2]: 2300 nM
- IC50 [3]: 1500 nM
- IC50 [4]: 1800 nM
- IC50 [5]: 2000 nM
- IC50 [6]: 1400 nM
- IC50 (HT-29 human colon cancer): 1600 nM
- IC50 (MEL-3 human melanoma): 1300 nM
- IC50 (human normal lymphocytes): 13000 nM
- IC50 [7]: 7200 nM
- IC50 [8]: 200 nM
- IC50 [9]: 300 nM
- IC50 [10]: 400 nM
- IC50 [11]: 3300 nM
- IC50 [12]: 2900 nM
- morphologic markers of apoptosis (A549 lung cancer cells): cytoplasmatic blebbing, cellular fragmentation and formation of apoptotic bodies
